Test results reported in publication PMC8007111, “Novel Potent Muscarinic Receptor Antagonists: Investigation on the Nature of Lipophilic Substituents in the 5- and/or 6-Positions of the 1,4-Dioxane Nucleus” (Journal of Medicinal Chemistry, 2020).

Experiments:
[1] = target: T1, hM1 mAChR (Homo sapiens, UniProt P11229); experiment: [3H]NMS inhibition radioligand binding, hM1 in CHO-K1 cell membranes; conditions: for ER (eudismic ratio) hM1: eutomer vs distomer
T1 construct: expressed in transfected cells; host or cells: CHO-K1 (membrane preparation)
T1 sequence (P11229 1-460): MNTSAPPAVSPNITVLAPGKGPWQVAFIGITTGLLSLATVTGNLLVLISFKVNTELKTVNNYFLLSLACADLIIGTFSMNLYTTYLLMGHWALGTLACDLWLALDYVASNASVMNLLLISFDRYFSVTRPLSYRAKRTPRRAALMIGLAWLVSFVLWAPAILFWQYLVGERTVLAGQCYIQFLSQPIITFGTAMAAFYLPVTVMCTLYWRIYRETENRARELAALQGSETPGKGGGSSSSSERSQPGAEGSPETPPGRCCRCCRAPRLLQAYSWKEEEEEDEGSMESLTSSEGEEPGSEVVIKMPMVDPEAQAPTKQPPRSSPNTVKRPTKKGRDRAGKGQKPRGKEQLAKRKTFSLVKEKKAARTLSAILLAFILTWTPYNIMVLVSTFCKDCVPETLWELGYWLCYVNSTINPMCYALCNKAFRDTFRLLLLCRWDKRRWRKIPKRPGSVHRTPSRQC
Method: (§1) CHO-K1 cells stably transfected with the human muscarinic receptor subtypes (hM1–5) were grown in Dulbecco’s modified Eagle’s medium (DMEM) with nutrient mixture F12 (DMEM/F12, 50/50), containing 10% fetal bovine serum, penicillin (100 U/mL), streptomycin (100 U/mL), L-glutamine (4 mM), and geneticin (G-418, 50 μg/mL) at 37 °C in a 5% CO2 humidified incubator. […] Serum (0.7 mL) was added to inactivate the trypsin, and the cells were spun down by centrifuging at 300g for 5 min. The cells were then resuspended in ice-cold 25 mM sodium phosphate buffer containing 5 mM MgCl2, pH 7.4 (binding buffer) and homogenized using a cell disrupter (Ultra-Turrax, setting 3, 30 s). The homogenate was sedimented by centrifugation (17,000g, 15 min). The supernatant was discarded, and the resulting membrane pellets were resuspended with Ultra-Turrax in the same buffer to give a final protein concentration of 1–2 mg/mL. The protein content was determined by the method of Bradford (1976) with bovine serum albumin (Sigma) as a standard and stored at −80 °C.
(§2) Inhibition radioligand binding assays were conducted as previously described[48],[49] with 0.2 nM [^3H]NMS in binding buffer in a final volume of 250 μL. Nonspecific binding was defined in the presence of 10 μM atropine. Briefly, membrane fractions (about 25–70 μg/mL of protein) were incubated with radioligand and unlabeled test compounds for 2 h at r.t. Bound and free radioactivity were separated by filtering the assay mixture through UniFilter GF/B plates using a FilterMate Cell Harvester (PerkinElmer Life and Analytical Science). The filter bound radioactivity was counted by a TopCount NXT Microplate Scintillation Counter (PerkinElmer Life and Analytical Science). Data (cpm) were normalized to percentage-specific binding and analyzed using a four-parameter logistic equation in GraphPad Prism 5.02; IC50 values were determined, and Ki values were calculated.[59]

[2] = target: T2, hM2 mAChR (Homo sapiens, UniProt P08172); experiment: [3H]NMS inhibition radioligand binding, hM2 in CHO-K1 cell membranes; conditions: for ER (eudismic ratio) hM2: eutomer vs distomer
T2 construct: expressed in transfected cells; host or cells: CHO-K1 (membrane preparation)
T2 sequence (P08172 1-466): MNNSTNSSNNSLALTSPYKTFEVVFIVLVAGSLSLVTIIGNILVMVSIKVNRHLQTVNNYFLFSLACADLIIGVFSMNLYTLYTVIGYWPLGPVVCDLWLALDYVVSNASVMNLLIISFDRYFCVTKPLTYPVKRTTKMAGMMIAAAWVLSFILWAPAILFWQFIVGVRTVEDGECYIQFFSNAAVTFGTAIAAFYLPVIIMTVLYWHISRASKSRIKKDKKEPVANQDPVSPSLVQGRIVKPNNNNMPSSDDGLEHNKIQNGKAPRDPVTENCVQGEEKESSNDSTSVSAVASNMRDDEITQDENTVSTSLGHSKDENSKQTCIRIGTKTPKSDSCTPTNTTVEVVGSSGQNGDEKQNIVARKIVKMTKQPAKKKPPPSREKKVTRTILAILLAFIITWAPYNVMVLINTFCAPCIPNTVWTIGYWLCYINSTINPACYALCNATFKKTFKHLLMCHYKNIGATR
Method: as §1, §2

[3] = target: T3, hM3 mAChR (Homo sapiens, UniProt P20309); experiment: [3H]NMS inhibition radioligand binding, hM3 in CHO-K1 cell membranes; conditions: for ER (eudismic ratio) hM3: eutomer vs distomer
T3 construct: expressed in transfected cells; host or cells: CHO-K1 (membrane preparation)
T3 sequence (P20309 whole entry): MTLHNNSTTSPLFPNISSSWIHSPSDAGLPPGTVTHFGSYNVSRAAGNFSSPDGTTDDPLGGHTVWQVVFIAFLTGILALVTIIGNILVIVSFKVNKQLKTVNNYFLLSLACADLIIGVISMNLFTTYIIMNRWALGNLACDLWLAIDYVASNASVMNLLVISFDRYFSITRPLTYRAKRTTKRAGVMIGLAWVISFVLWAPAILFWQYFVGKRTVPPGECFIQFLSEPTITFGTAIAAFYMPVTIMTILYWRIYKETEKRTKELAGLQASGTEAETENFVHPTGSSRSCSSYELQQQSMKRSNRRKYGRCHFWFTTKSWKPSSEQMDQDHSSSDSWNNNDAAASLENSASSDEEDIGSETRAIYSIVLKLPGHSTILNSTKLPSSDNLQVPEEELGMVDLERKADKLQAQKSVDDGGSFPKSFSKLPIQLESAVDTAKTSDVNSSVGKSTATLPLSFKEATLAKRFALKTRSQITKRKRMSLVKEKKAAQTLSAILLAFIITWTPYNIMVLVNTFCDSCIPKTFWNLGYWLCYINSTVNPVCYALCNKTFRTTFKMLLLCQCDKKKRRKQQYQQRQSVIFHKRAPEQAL
Method: as §1, §2

[4] = target: T4, hM4 mAChR (Homo sapiens, UniProt P08173); experiment: [3H]NMS inhibition radioligand binding, hM4 in CHO-K1 cell membranes; conditions: for ER (eudismic ratio) hM4: eutomer vs distomer
T4 construct: expressed in transfected cells; host or cells: CHO-K1 (membrane preparation)
T4 sequence (P08173 1-479): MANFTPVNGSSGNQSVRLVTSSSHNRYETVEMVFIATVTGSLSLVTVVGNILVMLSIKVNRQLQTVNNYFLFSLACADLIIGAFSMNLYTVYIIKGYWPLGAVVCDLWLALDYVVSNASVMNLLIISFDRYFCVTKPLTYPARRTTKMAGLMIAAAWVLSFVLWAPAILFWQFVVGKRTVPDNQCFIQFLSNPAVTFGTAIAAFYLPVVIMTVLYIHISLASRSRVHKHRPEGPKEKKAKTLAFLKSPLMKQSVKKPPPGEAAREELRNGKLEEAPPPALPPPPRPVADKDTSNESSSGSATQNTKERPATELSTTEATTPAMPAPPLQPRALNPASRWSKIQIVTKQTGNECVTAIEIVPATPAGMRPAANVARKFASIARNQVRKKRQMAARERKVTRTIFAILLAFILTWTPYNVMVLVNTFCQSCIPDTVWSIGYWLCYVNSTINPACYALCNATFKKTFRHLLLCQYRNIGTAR
Method: as §1, §2

[5] = target: T5, hM5 mAChR (Homo sapiens, UniProt P08912); experiment: [3H]NMS inhibition radioligand binding, hM5 in CHO-K1 cell membranes
T5 construct: expressed in transfected cells; host or cells: CHO-K1 (membrane preparation)
T5 sequence (P08912 1-532): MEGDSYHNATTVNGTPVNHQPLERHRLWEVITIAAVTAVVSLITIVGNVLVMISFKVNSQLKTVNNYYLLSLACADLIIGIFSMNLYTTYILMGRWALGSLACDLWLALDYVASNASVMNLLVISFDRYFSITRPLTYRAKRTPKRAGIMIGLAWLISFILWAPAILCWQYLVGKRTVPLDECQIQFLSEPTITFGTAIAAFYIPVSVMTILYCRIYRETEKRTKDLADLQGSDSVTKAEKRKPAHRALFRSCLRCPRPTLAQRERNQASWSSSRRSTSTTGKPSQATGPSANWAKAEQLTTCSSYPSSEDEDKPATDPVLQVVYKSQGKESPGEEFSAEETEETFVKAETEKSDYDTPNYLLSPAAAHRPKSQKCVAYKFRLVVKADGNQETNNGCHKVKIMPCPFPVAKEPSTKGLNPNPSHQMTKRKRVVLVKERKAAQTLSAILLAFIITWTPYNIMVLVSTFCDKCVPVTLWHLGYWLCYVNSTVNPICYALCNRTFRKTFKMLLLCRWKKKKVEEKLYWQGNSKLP
Method: as §1, §2

[6] = [3H]NMS, CHO-K1 cell membranes, mean ± S.E.M.

pKi hM1 [1, 6] | pKi hM2 [2, 6] | pKi hM3 [3, 6] | pKi hM4 [4, 6] | pKi hM5 [5, 6] | ER (eudismic ratio) hM5 ([5]; eutomer vs distomer) | M3/M2 selectivity ratio ([3]; from binding affinities at hM3 and hM2) | Ki ([1]; [3H]NMS, CHO-K1 cell membranes, mean ± S.E.M., read-out: pKi hM1 (converted)) | Ki ([2]; [3H]NMS, CHO-K1 cell membranes, mean ± S.E.M., read-out: pKi hM2 (converted)) | Ki ([3]; [3H]NMS, CHO-K1 cell membranes, mean ± S.E.M., read-out: pKi hM3 (converted)) | Ki ([4]; [3H]NMS, CHO-K1 cell membranes, mean ± S.E.M., read-out: pKi hM4 (converted)) | Ki ([5]; [3H]NMS, CHO-K1 cell membranes, mean ± S.E.M., read-out: pKi hM5 (converted)) | Structure (SMILES) | ER (eudismic ratio) hM1 [1] | ER (eudismic ratio) hM2 [2] | ER (eudismic ratio) hM3 [3] | ER (eudismic ratio) hM4 [4]
5.08 ± 0.09 | 5.13 ± 0.01 | <5 | <5 | 5.21 ± 0.14 |  |  |  |  |  |  |  | C[N+](C)(C)C[C@@H]1COC[C@H](c2ccc(S(=O)(=O)c3ccccc3)cc2)O1.[I-] (relative stereo) [8a, 1-((2R*,6S*)-6-(4-(Phenylsulfonyl)phenyl)-1,4-dioxan-2-yl)-N,N,N-trimethylmethanaminium Iodide] |  |  |  | 
9.10 ± 0.28 | 8.10 ± 0.10 | 9.02 ± 0.10 | 9.09 ± 0.15 | 8.83 ± 0.10 | 47 |  |  |  |  |  |  | CN(C)C[C@H]1COC[C@@](c2ccccc2)(C2CCCCC2)O1 [(2S,6S)-(−)-33b] | 26 | 9 | 195 | 120
7.19 ± 0.07 | 6.62 ± 0.08 | 6.45 ± 0.01 | 6.40 ± 0.06 | 6.21 ± 0.01 |  |  |  |  |  |  |  | C[N+](C)(C)C[C@@H]1CO[C@@H](c2ccccc2)[C@@H](c2ccccc2)O1.[I-] (relative stereo) [18c, 1-((2R*,5S*,6R*)-5,6-Diphenyl-1,4-dioxan-2-yl)-N,N,N-trimethylmethanaminium Iodide] |  |  |  | 
<5 | 6.39 ± 0.04 | 5.14 ± 0.10 | <5 | 5.05 ± 0.08 |  |  |  |  |  |  |  | C[N+](C)(C)C[C@@H]1CO[C@H](c2ccc(S(=O)(=O)c3ccccc3)cc2)CO1.[I-] (relative stereo) [17a, 1-((2R*,5R*)-5-(4-(Phenylsulfonyl)phenyl)-1,4-dioxan-2-yl)-N,N,N-trimethylmethanaminium Iodide] |  |  |  | 
<5 | <5 | <5 | <5 | <5 |  |  |  |  |  |  |  | C[N+](C)(C)C[C@@H]1CO[C@H](c2ccc(-c3ccccc3)cc2)CO1.[I-] (relative stereo) [13a, 1-((2R*,5R*)-5-([1,1′-Biphenyl]-4-yl)-1,4-dioxan-2-yl)-N,N,N-trimethylmethanaminium Iodide] |  |  |  | 
<5 | <5 | <5 | <5 | <5 |  |  |  |  |  |  |  | C[N+](C)(C)C[C@@H]1CO[C@@H](c2ccc(S(=O)(=O)c3ccccc3)cc2)CO1.[I-] (relative stereo) [17b, 1-((2R*,5S*)-5-(4-(Phenylsulfonyl)phenyl)-1,4-dioxan-2-yl)-N,N,N-trimethylmethanaminium Iodide] |  |  |  | 
8.86 ± 0.16 | 7.88 ± 0.08 | 8.72 ± 0.10 | 8.62 ± 0.12 | 8.62 ± 0.17 |  | 7.0 |  |  |  |  |  | CN(C)C[C@@H]1COC[C@](c2ccccc2)(C2CCCCC2)O1 (relative stereo) [33b, 1-((2R*,6R*)-6-Cyclohexyl-6-phenyl-1,4-dioxan-2-yl)-N,N-dimethylmethanamine] |  |  |  | 
 |  |  |  |  |  |  | > 10 µM | 4.9 µM | > 10 µM | > 10 µM | 7.41 µM | C[N+](C)(C)CC1COCC(c2ccc(Cc3ccccc3)cc2)O1 (mixture of isomers) [5a/b, 1-((2R*,6S*)-6-(4-Benzylphenyl)-1,4-dioxan-2-yl)-N,N,N-trimethylmethanaminium Iodide and 1-((2R*,6R*)-6-(4-Benzylphenyl)-1,4-dioxan-2-yl)-N,N,N-trimethylmethanaminium Iodide] |  |  |  | 
<5 | 5.52 ± 0.02 | <5 | <5 | 5.21 ± 0.08 |  |  |  |  |  |  |  | C[N+](C)(C)C[C@@H]1COC[C@H](c2ccc([S+]([O-])c3ccccc3)cc2)O1.[I-] (relative stereo) [7a, 1-((2R*,6S*)-6-(4-(Phenylsulfinyl)phenyl)-1,4-dioxan-2-yl)-N,N,N-trimethylmethanaminium Iodide] |  |  |  | 

Structure (SMILES) | pKi hM1 [1, 6] | pKi hM2 [2, 6] | pKi hM3 [3, 6] | pKi hM4 [4, 6] | pKi hM5 [5, 6] | ER (eudismic ratio) hM5 ([5]; eutomer vs distomer) | M3/M2 selectivity ratio ([3]; from binding affinities at hM3 and hM2) | Ki ([1]; [3H]NMS, CHO-K1 cell membranes, mean ± S.E.M., read-out: pKi hM1 (converted)) | Ki ([2]; [3H]NMS, CHO-K1 cell membranes, mean ± S.E.M., read-out: pKi hM2 (converted)) | Ki ([3]; [3H]NMS, CHO-K1 cell membranes, mean ± S.E.M., read-out: pKi hM3 (converted)) | Ki ([4]; [3H]NMS, CHO-K1 cell membranes, mean ± S.E.M., read-out: pKi hM4 (converted)) | Ki ([5]; [3H]NMS, CHO-K1 cell membranes, mean ± S.E.M., read-out: pKi hM5 (converted)) | ER (eudismic ratio) hM1 [1] | ER (eudismic ratio) hM2 [2] | ER (eudismic ratio) hM3 [3] | ER (eudismic ratio) hM4 [4]
C[N+](C)(C)C[C@H]1COC[C@@](c2ccccc2)(C2CCCCC2)O1.[I-] [(2S,6S)-(−)-3b, 1-((2S,6S)-6-Cyclohexyl-6-phenyl-1,4-dioxan-2-yl)-N,N,N-trimethylmethanaminium Iodide] | 9.52 ± 0.19 | 8.22 ± 0.10 | 9.05 ± 0.10 | 9.17 ± 0.19 | 9.18 ± 0.18 |  |  |  |  |  |  |  | 17 | 2 | 35 | 52
C[N+](C)(C)C[C@@H]1CO[C@@H](c2ccccc2)CO1.[I-] (relative stereo) [9b, 1-((2R*,5S*)-5-Phenyl-1,4-dioxan-2-yl)-N,N,N-trimethylmethanaminium Iodide] | <5 | <5 | <5 | <5 | <5 |  |  |  |  |  |  |  |  |  |  | 
C[N+](C)(C)C[C@@H]1COC[C@H](c2ccc(Sc3ccccc3)cc2)O1.[I-] (relative stereo) [6a, 1-((2R*,6S*)-6-(4-(Phenylthio)phenyl)-1,4-dioxan-2-yl)-N,N,N-trimethylmethanaminium Iodide] | 5.50 ± 0.05 | 5.47 ± 0.07 | <5 | 5.43 ± 0.05 | 5.58 ± 0.13 |  |  |  |  |  |  |  |  |  |  | 
